Reference: ChEMBL document CHEMBL1146813, “Synthesis and antibacterial activity of novel bifunctional macrolides” (2004)
Converted amounts (≈) assume the structure as drawn.

Tests used:
Format in all cases: functional
Haemophilus influenzae = experiment: In vitro antibacterial activity against Haemophilus influenzae GYR1435 (fully susceptible strain)
Staphylococcus aureus [1] = experiment: In vitro antibacterial activity against Staphylococcus aureus 1775 (methicillin-resistant strain(MRSA))
Staphylococcus aureus [2] = experiment: In vitro antibacterial activity against Staphylococcus aureus NCTC 10649 (erythromycin-susceptible strain)
Streptococcus pneumoniae [3] = experiment: In vitro antibacterial activity against Streptococcus pneumoniae 5649 (efflux-resistant strain bearing a mef (E) gene)
Streptococcus pneumoniae [4] = experiment: In vitro antibacterial activity against Streptococcus pneumoniae 5979 (MLSB resistant stain bearing an erm (B) gene)
Streptococcus pneumoniae [5] = experiment: In vitro antibacterial activity against Streptococcus pneumoniae ATCC 6303 (an erythromycin-susceptible strain)

Row | SMILES | MIC (Haemophilus influenzae) [µg/mL] | MIC (Staphylococcus aureus [1]) [µg/mL] | MIC (Staphylococcus aureus [2]) [µg/mL] | MIC (Streptococcus pneumoniae [3]) [µg/mL] | MIC (Streptococcus pneumoniae [4]) [µg/mL] | MIC (Streptococcus pneumoniae [5]) [µg/mL]
1 | CC[C@H]1OC(=O)[C@H](C)C(=O)[C@H](C)[C@@H](O[C@@H]2O[C@H](C)C[C@H](N(C)C)[C@H]2O)[C@@](C)(OC)C[C@@H](C)/C(=N\OCCNCCCOCCCNCc2cc(Cl)cc(Cl)c2)[C@H](C)[C@@H](O)[C@]1(C)O | 8 (≈ 8.7 µM) | > 128 | 1 (≈ 1.09 µM) | 0.015 (≈ 0.0163 µM) | 4 (≈ 4.35 µM) | ≤ 0.008
2 | CC[C@H]1OC(=O)[C@H](C)C(=O)[C@H](C)[C@@H](O[C@@H]2O[C@H](C)C[C@H](N(C)C)[C@H]2O)[C@@](C)(OC)C[C@@H](C)/C(=N\OCCNCCCOCCCNCc2ccccc2)[C@H](C)[C@@H](O)[C@]1(C)O | 128 (≈ 150 µM) | ≥ 128 | 16 (≈ 18.8 µM) | 0.25 (≈ 0.294 µM) | 1 (≈ 1.17 µM) | 0.12 (≈ 0.141 µM)
3 | CC[C@H]1OC(=O)[C@H](C)[C@@H](OC(=O)NCCCOCCCNC(=O)Cc2ccc(OC)cc2)[C@H](C)[C@@H](O[C@@H]2O[C@H](C)C[C@H](N(C)C)[C@H]2O)[C@@](C)(OC)C[C@@H](C)C(=O)[C@H](C)[C@H]2NC(=O)O[C@@]21C | 16 (≈ 17.4 µM) | > 128 | 8 (≈ 8.68 µM) | 0.5 (≈ 0.543 µM) | > 128 | 0.5 (≈ 0.543 µM)
4 | CC[C@H]1OC(=O)[C@H](C)C(=O)[C@H](C)[C@@H](O[C@@H]2O[C@H](C)C[C@H](N(C)C)[C@H]2O)[C@@](C)(OC)C[C@@H](C)/C(=N\OCCNCCCOCCOCCCNc2ccc(Oc3ccccc3)cc2)[C@H](C)[C@@H](O)[C@]1(C)O | 64 (≈ 65.8 µM) | 128 (≈ 132 µM) | 2 (≈ 2.05 µM) | 1 (≈ 1.03 µM) | 2 (≈ 2.05 µM) | 0.12 (≈ 0.123 µM)
5 | CC[C@H]1OC(=O)[C@H](C)C(=O)[C@H](C)[C@@H](O[C@@H]2O[C@H](C)C[C@H](N(C)C)[C@H]2O)[C@@](C)(OC)C[C@@H](C)/C(=N\OCCNCCCOCCOCCOCCCNc2ccc(Oc3ccccc3)cc2)[C@H](C)[C@@H](O)[C@]1(C)O | 32 (≈ 31.5 µM) | 128 (≈ 126 µM) | 2 (≈ 1.97 µM) | 1 (≈ 0.983 µM) | 2 (≈ 1.97 µM) | 0.25 (≈ 0.246 µM)
6 | CC[C@H]1OC(=O)[C@H](C)C(=O)[C@H](C)[C@@H](O[C@@H]2O[C@H](C)C[C@H](N(C)C)[C@H]2O)[C@@](C)(OC)C[C@@H](C)/C(=N\OCCNCCCCNCc2ccc(Oc3ccccc3)cc2)[C@H](C)[C@@H](O)[C@]1(C)O | 16 (≈ 17.8 µM) | 32 (≈ 35.6 µM) | 16 (≈ 17.8 µM) | 0.25 (≈ 0.278 µM) | 0.5 (≈ 0.556 µM) | 0.015 (≈ 0.0167 µM)
7 | C=CC(C)C(=O)NCCNC(=O)O[C@H]1[C@H](C)[C@@H](O[C@@H]2O[C@H](C)C[C@H](N(C)C)[C@H]2O)[C@@](C)(OC)C[C@@H](C)C(=O)[C@H](C)[C@H]2NC(=O)O[C@]2(C)[C@@H](CC)OC(=O)[C@@H]1C (stereo not given in full) | 128 (≈ 163 µM) | > 128 | 64 (≈ 81.7 µM) | – | > 128 | 0.25 (≈ 0.319 µM)
8 | CC[C@H]1OC(=O)[C@H](C)C(=O)[C@H](C)[C@@H](O[C@@H]2O[C@H](C)C[C@H](N(C)C)[C@H]2O)[C@@](C)(OC)C[C@@H](C)/C(=N\OCCNCCCCCCNCc2ccc(OC)cc2)[C@H](C)[C@@H](O)[C@]1(C)O | 4 (≈ 4.62 µM) | > 128 | 1 (≈ 1.16 µM) | 0.12 (≈ 0.139 µM) | 2 (≈ 2.31 µM) | ≤ 0.008
9 | CC[C@H]1OC(=O)[C@H](C)C(=O)[C@H](C)[C@@H](O[C@@H]2O[C@H](C)C[C@H](N(C)C)[C@H]2O)[C@@](C)(OC)C[C@@H](C)/C(=N\OCCNCCCNCc2ccc(Oc3ccccc3)cc2)[C@H](C)[C@@H](O)[C@]1(C)O | 13 (≈ 14.7 µM) | 64 (≈ 72.3 µM) | 32 (≈ 36.2 µM) | 1 (≈ 1.13 µM) | 32 (≈ 36.2 µM) | 0.12 (≈ 0.136 µM)
10 | CC[C@H]1OC(=O)[C@H](C)C(=O)[C@H](C)[C@@H](O[C@@H]2O[C@H](C)C[C@H](N(C)C)[C@H]2O)[C@@](C)(OC)C[C@@H](C)/C(=N\OCCNCCCCCCNCc2cccc(Oc3ccccc3)c2)[C@H](C)[C@@H](O)[C@]1(C)O | 4 (≈ 4.31 µM) | 64 (≈ 69 µM) | 2 (≈ 2.16 µM) | 0.5 (≈ 0.539 µM) | 0.12 (≈ 0.129 µM) | ≤ 0.008
11 | CC[C@H]1OC(=O)[C@H](C)C(=O)[C@H](C)[C@@H](O[C@@H]2O[C@H](C)C[C@H](N(C)C)[C@H]2O)[C@@](C)(OC)C[C@@H](C)C(=O)[C@H](C)[C@@H](O)[C@]1(C)O | 64 (≈ 109 µM) | > 128 | 0.5 (≈ 0.851 µM) | 0.12 (≈ 0.204 µM) | > 128 | 0.06 (≈ 0.102 µM)
12 | CC[C@H]1OC(=O)[C@H](C)C(=O)[C@H](C)[C@@H](O[C@@H]2O[C@H](C)C[C@H](N(C)C)[C@H]2O)[C@@](C)(OC)C[C@@H](C)/C(=N\OCCNCCCOCCCNCc2ccc(Cl)c(Cl)c2)[C@H](C)[C@@H](O)[C@]1(C)O | 16 (≈ 17.4 µM) | > 128 | 2 (≈ 2.17 µM) | 0.5 (≈ 0.543 µM) | 0.25 (≈ 0.272 µM) | 0.06 (≈ 0.0652 µM)
13 | CC[C@H]1OC(=O)[C@H](C)C(=O)[C@H](C)[C@@H](O[C@@H]2O[C@H](C)C[C@H](N(C)C)[C@H]2O)[C@@](C)(OC)C[C@@H](C)/C(=N\OCCNCCCOCCCNCc2cnc3ccccc3c2)[C@H](C)[C@@H](O)[C@]1(C)O | 64 (≈ 70.9 µM) | > 128 | 0.5 (≈ 0.554 µM) | 0.5 (≈ 0.554 µM) | 0.25 (≈ 0.277 µM) | 0.06 (≈ 0.0665 µM)
14 | CC[C@H]1OC(=O)[C@H](C)C(=O)[C@H](C)[C@@H](O[C@@H]2O[C@H](C)C[C@H](N(C)C)[C@H]2O)[C@@](C)(OC)C[C@@H](C)/C(=N\OCCNCCCOCCCNCc2cn(C)c3ccc(F)cc23)[C@H](C)[C@@H](O)[C@]1(C)O | 8 (≈ 8.68 µM) | 64 (≈ 69.4 µM) | 1 (≈ 1.08 µM) | 0.06 (≈ 0.0651 µM) | 4 (≈ 4.34 µM) | ≤ 0.008
15 | CC[C@H]1OC(=O)[C@H](C)C(=O)[C@H](C)[C@@H](O[C@@H]2O[C@H](C)C[C@H](N(C)C)[C@H]2O)[C@@](C)(OC)C[C@@H](C)/C(=N\OCCNCCCOCCCCOCCCNCc2ccc3ccccc3c2)[C@H](C)[C@@H](O)[C@]1(C)O | 32 (≈ 32.9 µM) | > 128 | 32 (≈ 32.9 µM) | 1 (≈ 1.03 µM) | 1 (≈ 1.03 µM) | 0.12 (≈ 0.123 µM)
16 | CC[C@H]1OC(=O)[C@H](C)C(=O)[C@H](C)[C@@H](O[C@@H]2O[C@H](C)C[C@H](N(C)C)[C@H]2O)[C@@](C)(OC)C[C@@H](C)/C(=N\OCCNCC2CCC(CNCc3ccc(Oc4ccccc4)cc3)CC2)[C@H](C)[C@@H](O)[C@]1(C)O (stereo not given in full) | 8 (≈ 8.39 µM) | 32 (≈ 33.6 µM) | 4 (≈ 4.2 µM) | 0.12 (≈ 0.126 µM) | 0.06 (≈ 0.0629 µM) | 0.06 (≈ 0.0629 µM)
17 | CC[C@H]1OC(=O)[C@H](C)C(=O)[C@H](C)[C@@H](O[C@@H]2O[C@H](C)C[C@H](N(C)C)[C@H]2O)[C@@](C)(OC)C[C@@H](C)/C(=N\OCCNCCCOCCCNCc2ccc(Oc3ccccc3)cc2)[C@H](C)[C@@H](O)[C@]1(C)O | 2 (≈ 2.12 µM) | 64 (≈ 67.9 µM) | 2 (≈ 2.12 µM) | ≤ 0.008 | 0.06 (≈ 0.0636 µM) | ≤ 0.008
18 | CC[C@H]1OC(=O)[C@H](C)C(=O)[C@H](C)[C@@H](O[C@@H]2O[C@H](C)C[C@H](N(C)C)[C@H]2O)[C@@](C)(OC)C[C@@H](C)/C(=N\OCCNCC2CCC(CNCc3cccc(Oc4ccccc4)c3)CC2)[C@H](C)[C@@H](O)[C@]1(C)O (stereo not given in full) | 8 (≈ 8.39 µM) | 64 (≈ 67.1 µM) | 4 (≈ 4.2 µM) | 0.12 (≈ 0.126 µM) | 2 (≈ 2.1 µM) | ≤ 0.008
19 | CC[C@H]1OC(=O)[C@H](C)C(=O)[C@H](C)[C@@H](O[C@@H]2O[C@H](C)C[C@H](N(C)C)[C@H]2O)[C@](C)(OCC=Cc2cnc3ccccc3c2)C[C@@H](C)C(=O)[C@H](C)[C@H]2NC(=O)O[C@@]21C [CETHROMYCIN] | 0.5 (≈ 0.653 µM) | > 128 | 0.12 (≈ 0.157 µM) | ≤ 0.008 | ≤ 0.008 | ≤ 0.008
20 | CC[C@H]1OC(=O)[C@H](C)[C@@H](O[C@H]2C[C@@](C)(OC)[C@@H](O)[C@H](C)O2)[C@H](C)[C@@H](O[C@@H]2O[C@H](C)C[C@H](N(C)C)[C@H]2O)[C@](C)(O)C[C@@H](C)C(=O)[C@H](C)[C@@H](O)[C@]1(C)O [ERYTHROMYCIN] | 2 (≈ 2.73 µM) | > 128 | 0.25 (≈ 0.341 µM) | 4 (≈ 5.45 µM) | > 128 | 0.03 (≈ 0.0409 µM)
21 | CC[C@H]1OC(=O)[C@H](C)C(=O)[C@H](C)[C@@H](O[C@@H]2O[C@H](C)C[C@H](N(C)C)[C@H]2O)[C@](C)(OC)C[C@@H](C)C(=O)[C@H](C)[C@H]2N(CCCCn3cnc(-c4cccnc4)c3)C(=O)O[C@]12C [TELITHROMYCIN] | 2 (≈ 2.46 µM) | > 128 | 0.06 (≈ 0.0739 µM) | 0.25 (≈ 0.308 µM) | 0.06 (≈ 0.0739 µM) | ≤ 0.008
